Results reported in article PMC11058261, “Nucleoside Phosphorylases make N7-xanthosine” (Nature Communications, 2024).

Key:
[1] = target: T1, human purine NP (Homo sapiens, UniProt P00491); assay: HPLC of glycosylation products; format: biochemical; settings: 500 µM X, 500 µM ribose 1-phosphate; 1 g/L enzyme; pH 9 or pH 7; 50 °C
T1 construct: gene PNP
T1 sequence (P00491 1-289): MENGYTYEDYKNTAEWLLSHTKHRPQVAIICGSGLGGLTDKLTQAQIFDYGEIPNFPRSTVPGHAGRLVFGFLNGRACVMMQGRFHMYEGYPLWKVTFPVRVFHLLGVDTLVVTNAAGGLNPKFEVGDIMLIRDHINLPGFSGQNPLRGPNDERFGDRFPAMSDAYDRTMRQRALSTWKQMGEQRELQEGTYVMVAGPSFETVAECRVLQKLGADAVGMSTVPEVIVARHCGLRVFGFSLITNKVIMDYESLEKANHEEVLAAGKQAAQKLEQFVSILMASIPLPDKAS

[2] = target: T2, GtPyNP (pyrimidine NP from G. thermoglucosidasius) (Parageobacillus thermoglucosidasius, UniProt A0AAN0YQC1); assay: HPLC of glycosylation products; format: biochemical; settings: 500 µM X, 500 µM ribose 1-phosphate; 1 g/L enzyme; pH 9 or pH 7; 50 °C
T2 construct: gene deoA
T2 sequence (A0AAN0YQC1 entry or part of it): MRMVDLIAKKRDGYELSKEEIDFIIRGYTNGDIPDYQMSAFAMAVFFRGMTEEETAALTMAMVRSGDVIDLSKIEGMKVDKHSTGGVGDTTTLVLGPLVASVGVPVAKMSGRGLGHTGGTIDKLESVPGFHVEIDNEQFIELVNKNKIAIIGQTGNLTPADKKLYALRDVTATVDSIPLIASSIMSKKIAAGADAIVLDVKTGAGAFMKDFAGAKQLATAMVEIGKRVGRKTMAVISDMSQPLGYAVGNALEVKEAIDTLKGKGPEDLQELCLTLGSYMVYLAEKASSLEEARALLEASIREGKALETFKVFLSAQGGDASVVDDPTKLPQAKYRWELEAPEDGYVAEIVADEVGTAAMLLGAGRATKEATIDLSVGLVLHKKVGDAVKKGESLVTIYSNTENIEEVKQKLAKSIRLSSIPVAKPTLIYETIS

Row | Compound | HPLC of glycosylation products [1] | HPLC of glycosylation products [2]
1 | O=c1[nH]c(=O)c2[nH]cnc2[nH]1 [X, xanthine] | mammalian NPs (human purine NP) | purine and pyrimidine NP from Geobacillus thermoglucosidasius
2 | O=P(O)(O)O[C@H]1O[C@H](CO)[C@@H](O)[C@H]1O [Rib1P, ribose 1-phosphate] | mammalian NPs (human purine NP) | purine and pyrimidine NP from Geobacillus thermoglucosidasius
